# Measurements: paper PMC12410356 (International Journal for Parasitology: Drugs and Drug …, 2025)
# Legend:
# [1] = tested on: E. multilocularis metacestode vesicles; assay: Phosphoglucose isomerase (PGI) release assay (damage-marker release) on metacestode vesicles; type: cell-based, Echinococcus multilocularis; conditions: 10 μM; for PGI d5 (relative PGI release): 5 days; for PGI d12 (relative PGI release): 12 days
# [2] = tested on: E. multilocularis metacestode vesicles; assay: Metacestode vesicle viability assay (ATP, CellTiter-Glo); type: cell-based, Echinococcus multilocularis
# Method: Viability was assessed after 12 days using the same metacestode vesicles as for the PGI release assay. Triton X-100 was added to each well to a final concentration of 0.1 %. Subsequently the metacestode vesicles were broken mechanically and 50 μL of the supernatant was mixed with 50 μL of CellTiter-Glo® buffer (Promega, Dübendorf, Switzerland). Measurements were performed on a HIDEX Sense microplate reader.
# [3] = overview screen, singlets, relative to 0.1 % Triton X-100, DMSO subtracted
# [4] = overview screen, 10 μM, singlets, 12 days, relative to DMSO control
# [5] = confirmation screen, triplicates, mean
# [6] = confirmation screen, 10 μM, triplicates, mean, 12 days
SMILES,"PGI d5 (relative PGI release) [1, 3] [%]","PGI d12 (relative PGI release) [1, 3] [%]","Viability d12 (relative viability) [2, 4] [%]","PGI d5 (relative PGI release) [1, 5] [%]","PGI d12 (relative PGI release) [1, 5] [%]","Viability d12 (relative viability) [2, 6] [%]",Viability d12 (relative viability) ([2]; 10 µM) [%]
Oc1cc(-c2cccc3ccccc23)[nH]n1 [MMV422940],-1.4338,-25.9471,50.1817,–,–,–,–
O=C(O)c1sccc1S(=O)(=O)n1ccc2cc(Br)ccc21 [MMV1580855],0.195,35.1913,69.7674,–,–,–,–
FC(F)(F)Oc1ccc(Nc2ccc3cccc(Cl)c3n2)cc1 [MMV1581032],-0.01272,18.8065,85.6723,–,–,–,–
CC1(C)C[C@H]1C(=O)N/C(=C\CCCCSC[C@@H](N)C(=O)O)C(=O)O.[Na+] [MMV1613559],-0.3777,-1.053,85.3181,–,–,–,–
C[C@@H]1O[C@@H]1P(=O)(O)O [MMV002354],4.505,-11.1824,22.2102,–,–,–,–
CC1(C)Cc2c(C#N)c(SCCc3ccccc3)nc(N3CCOCC3)c2CO1 [MMV1549626],-2.265,-14.2052,93.3497,–,–,–,–
CC(=O)N[C@H](C)C(=O)N[C@H](Cc1ccccc1)C(=O)O [MMV1580845],0.2541,-2.372,90.1704,–,–,–,–
Cc1c(CN(C)C(=O)/C=C/c2cnc3c(c2)C(C)(C)C(=O)N3)oc2ccccc12 [MMV1579788],17.9293,63.9713,5.845,-0.0109,-0.0852,76.12,–
NC(=S)N/N=C/c1ncccc1N [MMV1580496],-0.2661,1.095,58.7881,–,–,–,–
COc1cc(C(C)(C)CCCC(C)C)cc(OC)c1OC [MMV1782102],0.2099,-19.1561,58.4954,–,–,–,–
CCCNc1ccc(S(=O)(=O)Nc2cc(C)on2)cc1 [MMV1782216],-2.087,-24.1037,105.791,–,–,–,–
O=c1ccc2ncc(=O)n3c2n1CC3CN1CCC(NCc2cc3c(cn2)OCCC3)CC1 (stereo not drawn) [MMV1578568],-2.295,-8.489,53.1876,–,–,–,–
CC(C)(C)c1ccc(Oc2ccc(N)cc2)cc1 [MMV1174026],-0.5482,16.4911,305.195,–,–,–,–
O=C(NCc1ccc2c3c(cccc13)C(=O)N2)c1cccs1 [MMV1341773],-1.3816,-12.533,18.2024,–,–,–,–
Nc1nc2c(ncn2[C@@H]2O[C@H](CO)[C@@H](O)[C@H]2F)c(=O)[nH]1 [MMV1633677],-0.3308,49.9588,216.057,–,–,–,–
CO/N=C(\C(=O)N[C@@H]1C(=O)N2C(C(=O)OCOC(=O)C(C)(C)C)=C(/C=C\c3scnc3C)CS[C@H]12)c1csc(N)n1 [MMV002560],-2.539,-11.7788,19.8723,–,–,–,–

SMILES,"PGI d5 (relative PGI release) [1, 3] [%]","PGI d12 (relative PGI release) [1, 3] [%]","Viability d12 (relative viability) [2, 4] [%]","PGI d5 (relative PGI release) [1, 5] [%]","PGI d12 (relative PGI release) [1, 5] [%]","Viability d12 (relative viability) [2, 6] [%]",Viability d12 (relative viability) ([2]; 10 µM) [%]
COc1cc(C2C3=C(CC(C)(C)CC3=O)Nc3ccccc3N2C(C)=O)ccc1OCc1ccccc1 (stereo not drawn) [MMV1634557],-2.659,-23.764,141.611,–,–,–,–
C[C@H]1[C@@H](c2cccc(C(F)(F)F)c2)OC(=O)N1C(=O)NCc1cncc2ccccc12 [MMV1593533],-2.428,-25.2459,85.501,–,–,–,–
O=C(NC12CC3CC(CC(C3)C1)C2)c1cc2ccccc2[nH]1 [MMV1578577],-0.2186,-2.179,82.8787,–,–,–,–
O=C(c1ccc(F)cc1)N1CCN2C(=O)c3ccccc3C12c1ccccc1 (stereo not drawn) [MMV1165877],6.429,52.7291,23.1723,0.55,0.41,130.42,–
Nc1nnc(-c2ccc(Cl)cc2)s1 [MMV046261],0.5147,3.499,11.5226,–,–,–,–
COC(=O)Nc1nc2cc(Sc3ccccc3)ccc2[nH]1 [MMV003143],2.636,9.38,13.6935,–,–,–,–
OC1O[C@H](CSc2ccc(F)cc2)[C@@H](O)[C@H]1O (stereo partly drawn) [MMV1581550],-2.303,-13.5328,95.5206,–,–,–,–
Nc1nc(Nc2ccc3nc(-c4ccc(F)cc4)cc(N)c3c2)cc(-c2ccccc2)n1 [MMV1593541],4.554,-2.81,23.9637,–,–,–,–
Cc1nc(Nc2ccc(F)cc2)nc(N2CCc3ccccc3C2C)c1C (stereo not drawn) [MMV030787],-1.879,-7.918,56.6945,–,–,–,–
Nc1nc(=O)[nH]cc1F [MMV004508],-1.885,-20.764,–,–,–,–,219.514
COC1CC2CCC(C)C(O)(O2)C(=O)C(=O)N2CCCCC2C(=O)OC(C(C)CC2CCC(OCCO)C(OC)C2)CC(=O)C(C)/C=C(\C)C(O)C(OC)C(=O)C(C)CC(C)/C=C/C=C/C=C/1C (stereo not drawn) [MMV639951],-0.3944,-20.0049,85.7507,–,–,–,–
O=[N+]([O-])c1ccc2c(CCc3c[nH]c4ccccc34)c[nH]c2c1 [MMV1593539],1.886,90.6206,72.058,–,–,–,–
CC1=C(/C=C/C(C)=C/C=C/C(C)=C/C(=O)Nc2ccc(O)cc2)C(C)(C)CCC1 [MMV001793],0.1304,-19.3598,54.0144,–,–,–,–
O=S(=O)(NCB(O)O)c1cc2c(Cl)ccc(Cl)c2s1 [MMV1580841],-1.0927,-26.0917,81.7436,–,–,–,–
Cc1ccc(C)c(OCCCCCCN2C[C@H](O)[C@@H](O)[C@H](O)[C@H]2CO)c1 [MMV1634401],8.592,62.8936,26.5643,1.51,2.13,146.24,–
N[C@H](CCC(=O)N[C@@H](Cc1c[nH]c2ccccc12)C(=O)O)C(=O)O [MMV1581033],0.0006202,-0.6563,121.646,–,–,–,–
